According to ChEMBL document CHEMBL4507327 (2021):

Key:
[1] = molecular target: Tyrosine-protein kinase Blk (Homo sapiens, UniProt P51451); experiment: BLK(BLK1CGF1) Takeda global kinase panel
[2] = molecular target: Mitogen-activated protein kinase kinase kinase kinase 4 (Homo sapiens, UniProt O95819); experiment: HGK [ZC1(M4K4CGP1)] Takeda global kinase panel
[3] = molecular target: Tyrosine-protein kinase Mer (Homo sapiens, UniProt Q12866); experiment: Mer(MERTLGF1) Takeda global kinase panel
[4] = molecular target: T1, 5-hydroxytryptamine receptor 1A (Homo sapiens) (UniProt P08908); conditions: Compound concentration 10.0 uM
T1 sequence (whole entry): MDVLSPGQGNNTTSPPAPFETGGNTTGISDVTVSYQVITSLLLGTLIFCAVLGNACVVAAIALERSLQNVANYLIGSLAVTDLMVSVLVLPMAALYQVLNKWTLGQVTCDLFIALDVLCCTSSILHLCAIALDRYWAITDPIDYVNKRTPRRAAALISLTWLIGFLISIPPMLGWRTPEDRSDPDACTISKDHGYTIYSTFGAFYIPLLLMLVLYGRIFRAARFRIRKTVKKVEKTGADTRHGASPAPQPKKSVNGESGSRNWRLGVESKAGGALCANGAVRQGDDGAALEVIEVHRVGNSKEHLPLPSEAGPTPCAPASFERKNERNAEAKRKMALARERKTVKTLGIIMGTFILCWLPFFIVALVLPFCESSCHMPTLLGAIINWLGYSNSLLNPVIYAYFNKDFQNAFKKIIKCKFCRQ

[5] = molecular target: 5-hydroxytryptamine receptor 1E (Homo sapiens) (UniProt P28566); conditions: Compound concentration 10.0 uM
[6] = molecular target: 5-hydroxytryptamine receptor 2B (Homo sapiens) (UniProt P41595); conditions: Compound concentration 10.0 uM
[7] = molecular target: 5-hydroxytryptamine receptor 5A (Homo sapiens) (UniProt P47898); conditions: Compound concentration 10.0 uM
[8] = molecular target: 5-hydroxytryptamine receptor 7 (Homo sapiens) (UniProt P34969); conditions: Compound concentration 10.0 uM
[9] = molecular target: Sodium-dependent serotonin transporter (Homo sapiens) (UniProt P31645); conditions: Compound concentration 10.0 uM
[10] = molecular target: Kappa-type opioid receptor (Homo sapiens) (UniProt P41145); conditions: Compound concentration 10.0 uM
[11] = molecular target: Histamine H2 receptor (Homo sapiens) (UniProt P25021); conditions: Compound concentration 10.0 uM
[12] = molecular target: Beta-1 adrenergic receptor (Homo sapiens) (UniProt P08588); conditions: Compound concentration 10.0 uM
[13] = molecular target: Muscarinic acetylcholine receptor M3 (Homo sapiens) (UniProt P20309); conditions: Compound concentration 10.0 uM
[14] = molecular target: Muscarinic acetylcholine receptor M4 (Homo sapiens) (UniProt P08173); conditions: Compound concentration 10.0 uM
[15] = molecular target: Muscarinic acetylcholine receptor M5 (Homo sapiens) (UniProt P08912); conditions: Compound concentration 10.0 uM
Rattus norvegicus = species: Rattus norvegicus; conditions: Compound concentration 10.0 uM
[16] = molecular target: Alpha-1D adrenergic receptor (Homo sapiens) (UniProt P25100); conditions: Compound concentration 10.0 uM
[17] = molecular target: Adenosine receptor A3 (Homo sapiens) (UniProt P0DMS8); conditions: Compound concentration 10.0 uM
[18] = molecular target: Inhibitor of nuclear factor kappa-B kinase subunit beta (Homo sapiens, UniProt O14920); experiment: IKKbeta(IKBBLHY1) Takeda global kinase panel
[19] = molecular target: cAMP-dependent protein kinase catalytic subunit gamma (Homo sapiens, UniProt P22612); experiment: PKAgamma(PRCGLGY1) Takeda global kinase panel
[20] = molecular target: Calcium/calmodulin-dependent protein kinase type 1D (Homo sapiens, UniProt Q8IU85); experiment: CaMK1delta(CA1DLGT5) Takeda global kinase panel
[21] = molecular target: Calcium/calmodulin-dependent protein kinase type II subunit beta (Homo sapiens, UniProt Q13554); experiment: CaMK2beta(CA2BCGT1) Takeda global kinase panel
[22] = molecular target: Calcium/calmodulin-dependent protein kinase kinase 2 (Homo sapiens, UniProt Q96RR4); experiment: CAMKK2(CAK2LGT5) Takeda global kinase panel
[23] = molecular target: Cyclin-dependent kinase-like 1 (Homo sapiens, UniProt Q00532); experiment: CDKL1(CDL1LGT1) Takeda global kinase panel
[24] = molecular target: Epithelial discoidin domain-containing receptor 1 (Homo sapiens, UniProt Q08345); experiment: DDR1(DDR1LGF1) Takeda global kinase panel
[25] = molecular target: Fibroblast growth factor receptor 2 (Homo sapiens, UniProt P21802); experiment: FGFR2(FGF2LGF1) Takeda global kinase panel
[26] = molecular target: Leucine-rich repeat serine/threonine-protein kinase 2 (Homo sapiens, UniProt Q5S007); experiment: LRRK2(LRR2PGF1) Takeda global kinase panel
[27] = molecular target: Dual specificity mitogen-activated protein kinase kinase 2 (Homo sapiens, UniProt P36507); experiment: MEK2 [MAP2K2(M2K2LGF1)] Takeda global kinase panel
Myosin-IIIa = Myosin-IIIa (Homo sapiens, UniProt Q8NEV4); experiment: MYO3A(MY3ALGRI) Takeda global kinase panel
[28] = molecular target: cGMP-dependent protein kinase 1 (Homo sapiens, UniProt Q13976); experiment: PKG1(PRG1LFP1) Takeda global kinase panel
[29] = molecular target: Ribosomal protein S6 kinase alpha-3 (Homo sapiens, UniProt P51812); experiment: RSK2(R6A3CGE1) Takeda global kinase panel
[30] = molecular target: Serine/threonine-protein kinase 16 (Homo sapiens, UniProt O75716); experiment: MPSK1(ST16LGF1) Takeda global kinase panel
[31] = molecular target: Serine/threonine-protein kinase 25 (Homo sapiens, UniProt O00506); experiment: YSK1(ST25LHY1) Takeda global kinase panel
[32] = molecular target: Serine/threonine-protein kinase 38 (Homo sapiens, UniProt Q15208); experiment: NDR1(ST38LGF1) Takeda global kinase panel
Angiopoietin-1 receptor = Angiopoietin-1 receptor (Homo sapiens, UniProt Q02763); experiment: TIE2(TEK1LGF1) Takeda global kinase panel
Tribbles homolog 1 = Tribbles homolog 1 (Homo sapiens, UniProt Q96RU8); experiment: Trb1(TRI1PARP) Takeda global kinase panel
[33] = molecular target: Tyrosine-protein kinase Yes (Homo sapiens, UniProt P07947); experiment: Yes(YES1LGF1) Takeda global kinase panel
[34] = molecular target: Histamine H2 receptor (Homo sapiens) (UniProt P25021); conditions: Compound concentration 10.0 uM; remark: listed apart in the source

Sequence of Tyrosine-protein kinase Blk (P51451 whole entry): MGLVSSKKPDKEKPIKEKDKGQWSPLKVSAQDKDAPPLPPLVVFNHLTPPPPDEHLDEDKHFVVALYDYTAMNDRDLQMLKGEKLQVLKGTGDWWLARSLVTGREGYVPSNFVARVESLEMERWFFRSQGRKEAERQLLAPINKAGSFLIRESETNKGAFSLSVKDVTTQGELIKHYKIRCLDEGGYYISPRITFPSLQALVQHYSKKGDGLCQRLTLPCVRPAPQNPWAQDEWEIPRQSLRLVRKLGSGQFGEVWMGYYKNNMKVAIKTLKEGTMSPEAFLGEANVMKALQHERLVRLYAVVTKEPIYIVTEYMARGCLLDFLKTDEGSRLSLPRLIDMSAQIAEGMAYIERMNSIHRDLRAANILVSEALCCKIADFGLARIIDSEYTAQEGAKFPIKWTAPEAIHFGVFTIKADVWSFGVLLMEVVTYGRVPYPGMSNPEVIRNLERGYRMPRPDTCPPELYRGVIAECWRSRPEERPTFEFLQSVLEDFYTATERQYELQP
Sequence of Histamine H2 receptor (Homo sapiens) (P25021 whole entry): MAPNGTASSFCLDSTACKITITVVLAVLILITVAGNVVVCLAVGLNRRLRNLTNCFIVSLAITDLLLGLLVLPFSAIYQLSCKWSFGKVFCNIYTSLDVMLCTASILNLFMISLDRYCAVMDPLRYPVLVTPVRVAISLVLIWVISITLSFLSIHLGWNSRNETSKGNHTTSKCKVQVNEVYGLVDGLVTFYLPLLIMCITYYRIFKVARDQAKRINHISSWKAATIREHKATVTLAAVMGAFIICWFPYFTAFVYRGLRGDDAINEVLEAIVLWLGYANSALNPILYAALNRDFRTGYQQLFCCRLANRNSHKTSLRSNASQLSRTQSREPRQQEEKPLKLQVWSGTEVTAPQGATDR
Sequence of Tyrosine-protein kinase Mer (Q12866 whole entry): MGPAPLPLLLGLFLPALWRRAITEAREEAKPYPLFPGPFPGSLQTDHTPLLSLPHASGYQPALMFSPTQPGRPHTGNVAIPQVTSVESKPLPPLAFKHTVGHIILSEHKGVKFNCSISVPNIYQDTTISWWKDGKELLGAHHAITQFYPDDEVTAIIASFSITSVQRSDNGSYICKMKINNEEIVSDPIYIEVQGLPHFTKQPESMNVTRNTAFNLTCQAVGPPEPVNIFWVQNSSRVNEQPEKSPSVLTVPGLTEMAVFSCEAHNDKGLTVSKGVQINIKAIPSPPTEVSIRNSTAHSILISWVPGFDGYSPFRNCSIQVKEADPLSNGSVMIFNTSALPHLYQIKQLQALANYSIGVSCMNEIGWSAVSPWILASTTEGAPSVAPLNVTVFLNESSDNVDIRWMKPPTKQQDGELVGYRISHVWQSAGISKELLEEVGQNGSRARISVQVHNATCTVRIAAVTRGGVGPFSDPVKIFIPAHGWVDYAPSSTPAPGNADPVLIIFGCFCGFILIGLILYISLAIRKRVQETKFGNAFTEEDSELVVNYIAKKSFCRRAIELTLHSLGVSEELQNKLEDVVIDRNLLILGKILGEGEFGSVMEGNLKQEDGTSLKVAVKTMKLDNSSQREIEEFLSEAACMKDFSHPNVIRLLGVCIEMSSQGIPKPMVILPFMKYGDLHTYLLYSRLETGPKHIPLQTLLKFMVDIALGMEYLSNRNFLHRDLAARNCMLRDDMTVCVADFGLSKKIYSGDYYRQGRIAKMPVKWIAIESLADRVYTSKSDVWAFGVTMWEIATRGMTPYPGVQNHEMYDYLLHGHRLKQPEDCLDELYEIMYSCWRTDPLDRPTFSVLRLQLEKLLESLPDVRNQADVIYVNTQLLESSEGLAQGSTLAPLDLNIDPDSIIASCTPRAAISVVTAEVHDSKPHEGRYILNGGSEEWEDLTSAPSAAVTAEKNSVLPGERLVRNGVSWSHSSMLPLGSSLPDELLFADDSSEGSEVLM
Sequence of Adenosine receptor A3 (Homo sapiens) (P0DMS8 whole entry): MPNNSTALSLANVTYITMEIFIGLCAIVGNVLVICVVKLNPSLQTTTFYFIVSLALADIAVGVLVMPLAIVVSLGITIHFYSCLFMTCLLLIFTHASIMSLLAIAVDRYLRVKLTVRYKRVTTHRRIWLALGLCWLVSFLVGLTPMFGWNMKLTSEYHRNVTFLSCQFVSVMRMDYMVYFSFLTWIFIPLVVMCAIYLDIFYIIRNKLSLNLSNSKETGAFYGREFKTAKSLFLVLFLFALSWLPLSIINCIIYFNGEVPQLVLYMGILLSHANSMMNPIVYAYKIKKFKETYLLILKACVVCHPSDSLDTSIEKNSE
Sequence of Calcium/calmodulin-dependent protein kinase kinase 2 (Q96RR4 whole entry): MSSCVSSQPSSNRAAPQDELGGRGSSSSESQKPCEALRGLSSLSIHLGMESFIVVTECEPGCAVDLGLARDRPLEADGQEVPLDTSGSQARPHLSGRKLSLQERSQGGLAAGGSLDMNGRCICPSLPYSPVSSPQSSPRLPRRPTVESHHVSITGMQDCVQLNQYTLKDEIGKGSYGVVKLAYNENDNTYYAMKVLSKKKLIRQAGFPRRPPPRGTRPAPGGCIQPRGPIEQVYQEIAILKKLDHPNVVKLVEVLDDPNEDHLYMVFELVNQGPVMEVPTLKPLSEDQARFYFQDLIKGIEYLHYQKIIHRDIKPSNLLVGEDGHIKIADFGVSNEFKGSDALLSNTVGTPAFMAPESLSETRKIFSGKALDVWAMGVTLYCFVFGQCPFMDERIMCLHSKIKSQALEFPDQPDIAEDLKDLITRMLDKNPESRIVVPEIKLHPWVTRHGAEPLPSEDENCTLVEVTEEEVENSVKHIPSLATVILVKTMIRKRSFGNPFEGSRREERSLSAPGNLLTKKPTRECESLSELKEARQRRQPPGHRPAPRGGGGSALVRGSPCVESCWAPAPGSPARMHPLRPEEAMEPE
Sequence of Muscarinic acetylcholine receptor M5 (Homo sapiens) (P08912 whole entry): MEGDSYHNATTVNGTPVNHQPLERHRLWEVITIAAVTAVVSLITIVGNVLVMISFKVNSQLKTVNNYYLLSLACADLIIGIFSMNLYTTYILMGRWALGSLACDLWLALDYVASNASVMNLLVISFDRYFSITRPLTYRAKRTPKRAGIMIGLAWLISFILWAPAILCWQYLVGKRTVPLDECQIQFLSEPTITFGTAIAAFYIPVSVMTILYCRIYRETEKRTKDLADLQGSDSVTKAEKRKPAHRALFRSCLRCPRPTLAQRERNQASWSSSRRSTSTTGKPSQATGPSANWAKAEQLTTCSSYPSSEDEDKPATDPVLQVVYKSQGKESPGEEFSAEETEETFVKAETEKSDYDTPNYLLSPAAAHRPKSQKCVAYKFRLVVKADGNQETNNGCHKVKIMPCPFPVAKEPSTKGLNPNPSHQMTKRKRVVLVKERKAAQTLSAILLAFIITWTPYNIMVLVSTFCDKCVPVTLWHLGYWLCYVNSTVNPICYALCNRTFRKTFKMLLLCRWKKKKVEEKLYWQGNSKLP
Sequence of cAMP-dependent protein kinase catalytic subunit gamma (P22612 whole entry): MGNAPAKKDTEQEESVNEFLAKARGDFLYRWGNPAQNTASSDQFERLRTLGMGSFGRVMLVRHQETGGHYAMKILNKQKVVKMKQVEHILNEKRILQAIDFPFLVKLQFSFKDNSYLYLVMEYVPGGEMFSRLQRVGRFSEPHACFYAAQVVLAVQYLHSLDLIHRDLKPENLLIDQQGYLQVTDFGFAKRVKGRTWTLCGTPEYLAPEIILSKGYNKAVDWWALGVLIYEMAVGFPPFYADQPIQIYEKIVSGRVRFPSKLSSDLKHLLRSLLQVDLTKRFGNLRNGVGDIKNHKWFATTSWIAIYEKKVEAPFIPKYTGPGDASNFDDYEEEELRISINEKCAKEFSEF
Sequence of Sodium-dependent serotonin transporter (Homo sapiens) (P31645 whole entry, looked up): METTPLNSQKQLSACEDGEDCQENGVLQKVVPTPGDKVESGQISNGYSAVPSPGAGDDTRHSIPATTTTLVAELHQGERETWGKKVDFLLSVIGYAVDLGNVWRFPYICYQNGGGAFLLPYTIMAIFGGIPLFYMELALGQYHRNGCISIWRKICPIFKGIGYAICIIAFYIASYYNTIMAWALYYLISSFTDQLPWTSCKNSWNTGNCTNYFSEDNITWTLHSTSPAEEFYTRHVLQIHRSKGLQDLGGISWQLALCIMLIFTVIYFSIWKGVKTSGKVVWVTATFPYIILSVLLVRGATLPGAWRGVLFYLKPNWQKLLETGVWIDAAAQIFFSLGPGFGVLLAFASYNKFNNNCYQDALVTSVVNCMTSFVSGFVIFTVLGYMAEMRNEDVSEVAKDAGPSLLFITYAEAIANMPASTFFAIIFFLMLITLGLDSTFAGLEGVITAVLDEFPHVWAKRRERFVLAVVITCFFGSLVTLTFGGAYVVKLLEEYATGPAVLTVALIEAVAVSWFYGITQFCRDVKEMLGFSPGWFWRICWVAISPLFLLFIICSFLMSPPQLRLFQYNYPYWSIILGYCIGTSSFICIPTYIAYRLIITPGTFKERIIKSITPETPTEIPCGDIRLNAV
Sequence of cGMP-dependent protein kinase 1 (Q13976 whole entry): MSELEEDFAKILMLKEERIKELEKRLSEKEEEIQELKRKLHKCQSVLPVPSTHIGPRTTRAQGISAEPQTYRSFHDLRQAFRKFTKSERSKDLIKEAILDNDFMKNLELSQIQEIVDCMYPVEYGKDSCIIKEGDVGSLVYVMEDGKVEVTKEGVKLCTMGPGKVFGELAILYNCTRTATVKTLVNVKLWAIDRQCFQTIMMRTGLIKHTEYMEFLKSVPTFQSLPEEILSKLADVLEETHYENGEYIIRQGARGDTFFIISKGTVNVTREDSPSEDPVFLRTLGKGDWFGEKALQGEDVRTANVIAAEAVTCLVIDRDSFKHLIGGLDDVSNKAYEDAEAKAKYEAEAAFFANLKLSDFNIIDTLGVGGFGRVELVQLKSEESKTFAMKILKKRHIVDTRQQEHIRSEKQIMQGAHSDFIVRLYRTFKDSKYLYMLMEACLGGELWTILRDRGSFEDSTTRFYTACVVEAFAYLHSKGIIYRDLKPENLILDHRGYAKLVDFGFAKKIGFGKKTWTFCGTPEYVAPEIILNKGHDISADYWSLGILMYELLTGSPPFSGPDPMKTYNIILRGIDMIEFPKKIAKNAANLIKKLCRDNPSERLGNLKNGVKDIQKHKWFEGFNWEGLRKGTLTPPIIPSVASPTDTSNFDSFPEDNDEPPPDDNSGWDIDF

CN1C(=O)[C@@H](N2CCc3cn(Cc4ccccc4)nc3C2=O)COc2ccccc21 [TP-030-1]
IC50 [1]: 1 µM | IC50 [2]: 1 µM | IC50 [3]: 1 µM | inhibition [4]: 5.07% | inhibition [5]: -1.55% | inhibition [6]: 12% | inhibition [7]: 21.1% | inhibition [8]: -1.17% | inhibition [9]: 5.99% | inhibition [10]: 14.7% | inhibition [11]: 11.9% | inhibition [12]: 5.21% | inhibition [13]: 0.09% | inhibition [14]: 8.56% | inhibition [15]: 6.63% | inhibition (Rattus norvegicus): 68.7% | inhibition [16]: -0.3% | inhibition [17]: 15%

CN1C(=O)[C@@H](N2CCc3cn(CC4CCS(=O)(=O)CC4)nc3C2=O)COc2ccccc21 [TP-030n]
IC50 [1]: 1 µM | IC50 [3]: 1 µM | IC50 [18]: 1 µM | IC50 [19]: 1 µM | IC50 [20]: 1 µM | IC50 [21]: 1 µM | IC50 [22]: 1 µM | IC50 [23]: 1 µM | IC50 [24]: 1 µM | IC50 [25]: 1 µM | IC50 [26]: 1 µM | IC50 [27]: 1 µM | IC50 (Myosin-IIIa): 1 µM | IC50 [28]: 1 µM | IC50 [29]: 1 µM | IC50 [30]: 1 µM | IC50 [31]: 1 µM | IC50 [32]: 1 µM | IC50 (Angiopoietin-1 receptor): 1 µM | IC50 (Tribbles homolog 1): 1 µM | IC50 [33]: 1 µM | inhibition [17]: 0% | inhibition [34]: -10%
